According to patent US20140221499A1, “NOVEL RODENT CONTROL AGENTS AND USES THEREOF” (priority 2011, published 2014):

Legend:
olfactory TAARs = test: TAAR reporter gene assay, panel of mouse and rat TAARs in HEK293 cells; assay type: cell-based; details: mouse and rat TAARs
Excerpt: Here, we set out to identify agonists for additional mouse and rat TAARs. We examined odor response profiles using a previously established reporter gene assay based on cAMP-dependent odor transduction in olfactory sensory neurons (40, 42). Briefly, TAAR plasmids were transfected into HEK293 cells along with a cAMP-dependent reporter gene encoding secreted alkaline phosphatase (CRE-SEAP). TAARs were expressed both in unmodified form and as fusion proteins with an N-terminal sequence of bovine rhodopsin (‘Rho tag’) that promotes cell surface expression of some chemosensory receptors (35). Transfected cells were incubated with test chemicals, and phosphatase activity was quantified with a fluorescent substrate as a reporter for TAAR activation. In initial experiments, we tested 38 different odorant mixtures containing 244 structurally diverse test chemicals (2-5 μM) for the ability to activate each mTAAR. Subsequently, we tested 73 amines that included known mTAAR agonists and related chemicals for the ability to activate each rTAAR.
TAAR functional assays. Full Taar coding regions were cloned into pcDNA3.1-(Invitrogen) with or without a 5′ DNA extension of 69 bp encoding the first 20 amino acids of bovine rhodopsin followed by a cloning linker ([…]). Point mutations were introduced in mTAAR7e and mTAAR7f by overlap extension PCR. Functional assays were performed as described (40, 42). Fluorescence was measured on an EnVision plate reader (Perkin Elmer) and SEAP activity graphed as relative fluorescence of a phosphatase substrate.

mouse TAAR3 = molecular target: T1, mouse TAAR3 (Mus musculus, UniProt Q5QD16); test: TAAR3 CRE-SEAP reporter gene assay in transfected HEK293 cells; assay type: cell-based
T1 construct: Full Taar coding regions were cloned into pcDNA3.1-(Invitrogen); expressed in transfected cells; host or cells: HEK293
T1 sequence (Q5QD16 1-343): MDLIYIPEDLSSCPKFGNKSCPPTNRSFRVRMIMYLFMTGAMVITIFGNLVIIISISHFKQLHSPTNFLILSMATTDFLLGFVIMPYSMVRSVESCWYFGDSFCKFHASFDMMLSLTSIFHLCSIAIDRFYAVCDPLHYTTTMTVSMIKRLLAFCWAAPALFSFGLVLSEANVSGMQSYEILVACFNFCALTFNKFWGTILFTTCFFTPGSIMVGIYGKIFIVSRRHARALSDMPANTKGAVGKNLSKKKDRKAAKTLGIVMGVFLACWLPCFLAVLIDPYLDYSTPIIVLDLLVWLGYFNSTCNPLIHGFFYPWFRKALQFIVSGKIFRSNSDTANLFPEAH
Procedure: Reporter gene assays were performed on HEK293 cells transfected with mouse TAAR3 and CRE-SEAP.
TAAR functional assays. Reporter gene assays were performed as described (Liberles S D & Buck LB (2006) A second class of chemosensory receptors in the olfactory epithelium. Nature 442(7103):645-650) with the following minor modifications. Test urines were diluted in serum-free media containing penicillin G (100 Units/ml, Invitrogen) and streptomycin sulfate ([…], Invitrogen). SEAP activity is measured as fluorescence resulting from dephosphorylation of a substrate, 4-methylumbelliferyl phosphate. Fluorescence values were obtained using an EnVision plate reader (Perkin Elmer) and are reported directly without normalization. All TAARs, except mouse TAAR3, were expressed as fusion proteins with an N-terminal sequence of bovine rhodopsin (Krautwurst D, Yau K W, & Reed R R (1998) Identification of ligands for olfactory receptors by functional expression of a receptor library. Cell 95(7):917-926).

mouse TAAR4 = molecular target: T2, mouse TAAR4 (Mus musculus, UniProt Q5QD15); test: TAAR4 CRE-SEAP reporter gene assay in transfected HEK293 cells; assay type: cell-based; details: concentration series of pure chemicals
T2 construct: Full Taar coding regions were cloned into pcDNA3.1-(Invitrogen); expressed in transfected cells; host or cells: HEK293
T2 sequence (Q5QD15 1-347): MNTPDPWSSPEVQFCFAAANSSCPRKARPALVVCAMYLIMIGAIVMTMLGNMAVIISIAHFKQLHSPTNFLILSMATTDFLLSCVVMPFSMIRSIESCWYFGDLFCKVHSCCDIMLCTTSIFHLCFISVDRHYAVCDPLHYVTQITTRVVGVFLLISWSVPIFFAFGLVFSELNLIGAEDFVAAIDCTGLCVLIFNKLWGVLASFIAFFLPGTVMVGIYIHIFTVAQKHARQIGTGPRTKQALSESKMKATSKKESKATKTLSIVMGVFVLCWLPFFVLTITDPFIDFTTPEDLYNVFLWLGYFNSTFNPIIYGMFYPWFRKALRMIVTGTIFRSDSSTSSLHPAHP
Procedure: HEK293 cells were co-transfected with TAAR expression plasmids and a cAMPdependent reporter gene encoding secreted alkaline phosphatase (CRE-SEAP). Transfected cells were incubated with urine extracts from different mammalian species, and phosphatase activity was quantified with a fluorescent substrate as a reporter for TAAR activation.
Test urines were diluted in serum-free media containing penicillin G (100 Units/ml, Invitrogen) and streptomycin sulfate (100 mg/ml, Invitrogen). SEAP activity is measured as fluorescence resulting from dephosphorylation of a substrate, 4-methylumbelliferyl phosphate. Fluorescence values were obtained using an EnVision plate reader (Perkin Elmer) and are reported directly without normalization.

[1] = system: corticosterone levels in rat plasma; test: Plasma corticosterone assay after odor exposure; assay type: in vivo; details: 30 min exposure, 10% amine or 2% TMT, 1 ml, ±SEM
Procedure: Avoidance to 2-phenylethylamine in rats was associated with acute changes in circulating levels of the stress hormone corticosterone.
Plasma corticosterone assay. […] Corticosterone levels were measured in duplicate using a competitive radioactive binding assay as described previously (Pryce C R, Bettschen D, Bahr N I, & Feldon J (2001) Comparison of the effects of infant handling, isolation, and nonhandling on acoustic startle, prepulse inhibition, locomotion, and HPA activity in the adult rat. Behav Neurosci 115(1):71-83).

[2] = system: mouse olfactory sensory neurons; test: Confocal calcium imaging of olfactory sensory neurons in tissue slices; assay type: cell-based; details: dorsal olfactory epithelium
Procedure: The mammalian olfactory system encodes odor identity using combinations of olfactory receptors (11). […] Here, we used a confocal imaging strategy to record cytosolic calcium transients of single sensory neurons in real time. Viability of analyzed neurons was determined after odor exposures by KCl-induced depolarization.
Confocal calcium imaging of olfactory sensory neurons in tissue slices. Recordings were performed as described (Spehr M, et al. (2006) Essential role of the main olfactory system in social recognition of major histocompatibility complex peptide ligands. J Neurosci 26(7):1961-1970) with the following modifications. For calcium sensitive dye loading, slices of olfactory epithelium were incubated (30 min, 4° C.) in HEPES solution (in mM: 145 NaCl, 5 KCl, 1 CaCl2, 1 MgCl2, 10 HEPES; pH=7.3) containing Fluo-4/AM (2 μM; Molecular Probes). Slices were transferred to a recording chamber (Slice Mini Chamber, Luigs & Neumann, Ratingen, Germany) and visualized using a Leica DM6000CFS confocal fixed stage upright microscope (Leica Microsystems, Mannheim, Germany) equipped with an apochromatic water immersion objective (HC X APO L20x/1.0 W) and infrared-optimized differential interference contrast (DIC) optics. Slices were anchored via stainless steel wires with 0.1 mm lycra threads and continuously superfused with HEPES-buffered solution. Changes in cytosolic calcium were monitored over time at 1.0 Hz frame rate. Stimulus application as well as solution exchange during inter-stimulus intervals was achieved by a custom-made, pressure-driven focal application device consisting of a software-controlled valve bank connected to a 7-in-1 ‘perfusion pencil’. Rhodamine application controlled for uniform flow and even stimulus application throughout the epithelial sensory surface. Offline analysis of time-lapse experiments was performed using LAS-AF software (Leica). All cells in a given field of view were marked as individual regions of interest (ROIs), and the relative fluorescence intensity for each ROI was calculated and processed as a function of time.

Sprague-Dawley rats = test: Open field odor avoidance; assay type: in vivo, rat; details: ten minute exposure, 12 animals ±SEM; 1 ml urine or 5 μl amine
Procedure: We next examined behavioral responses of rodents to 2-phenylethylamine. […] Behaviors of rats in a square-shaped arena were recorded and analyzed following placement of test stimuli in a pseudorandom corner (FIG. 5A). […] Thus, 2-phenylethylamine, in the absence of other predator odor cues, was sufficient to evoke rat avoidance behavior.
Open field behavioral analysis. Rat behavioral responses to odors in the open field were measured as described previously (Fendt M (2006) Exposure to urine of canids and felids, but not of herbivores, induces defensive behavior in laboratory rats. Journal of chemical ecology 32(12):2617-2627) with the following modifications. Adult Sprague-Dawley rats (240-340 g; Janvier, Le Genest St. Isle, France) were placed in the center of a 45 cm×45 cm Plexiglass arena (TSE Systems, Bad Homburg, Germany) equipped with infrared sensors (distance 14 mm, illumination 80-120 lux). The arena contained glass dishes (36 mm) in each corner, with one dish containing test stimuli. Prior to testing, animals were habituated to the arena by introducing them for three consecutive days. […] Location of the rats was automatically recorded using the infrared detectors and analyzed (TSE Systems software). Statistical significance was measured using Wilcoxon Signed Test (**p<0.01; comparison with chance level (25%)). […]

CCCCCCCCN(C)C [N,N-dimethyloctylamine]
TAAR activation (olfactory TAARs): activated TAARs

CC(C)CCN [isoamylamine]
TAAR activation (olfactory TAARs): activated TAARs | TAAR3 detection (mouse TAAR3): preferred ligand

NCCCc1ccccc1 [3-phenylpropylamine]
TAAR4 activation (mouse TAAR4): activates TAAR4 at high concentrations

OCCc1ccccc1 [2-phenylethanol]
TAAR4 activation (mouse TAAR4): did not activate TAAR4 at any concentration tested

COc1ccc2[nH]cc(CCN(C)C)c2c1 [ligand 7, 5-methoxy-N,N-dimethyltryptamine]
TAAR activation (olfactory TAARs): activated different TAAR7 paralogs

CC1=NC(C)SC1C (stereo not shown) [TMT, 2,5-dihydro-2,4,5-trimethylthiazole]
plasma levels of corticosterone [1]: 238 ± 21 ng/mL

NCc1ccccc1 [benzylamine, reference compound]
carnivore odor-selective neurons activated by 2-phenylethylamine that also responded to benzylamine [2]: 0/1268 | EC50 (mouse TAAR3): ~200 µM | plasma levels of corticosterone [1]: 130 ± 32 ng/mL | TAAR4 activation (mouse TAAR4): did not similarly activate TAAR4 | percentage of time rats are located in the odor quadrant (Sprague-Dawley rats): 29±7.2%

NC1CCCCC1 [cyclohexylamine]
TAAR activation (olfactory TAARs): activated TAARs

CN1CCCCC1 [1-methylpiperidine, N-methylpiperidine]
TAAR activation (olfactory TAARs): activated TAARs

CCCCN(C)C [N,N-dimethylbutylamine]
TAAR activation (olfactory TAARs): activated TAARs

CCCCNC [methylbutylamine]
TAAR activation (olfactory TAARs): activated TAARs
